Laboratory results as given in PMC6471062, “Suppression of the Ubiquitin Pathway by Small Molecule Binding to Ubiquitin Enhances Doxorubicin Sensitivity of the Cancer Cells” (Molecules, 2019).
Where two headings read alike, the source gives them in different places. One block for each compound: values may come before it.

Columns and labels:
[1] = system: H1299 cells; test: Dox-induced K48- and K63-polyubiquitination in cells (immunofluorescence staining, Western blot); format: cell-based; settings: H1299, non-pretreated, 5 µM Dox
Method: Figure 6 CR inhibits Dox-induced ubiquitination in the cells. (a) Immunofluorescence staining of H1299 cells treated with or without 5 (+) and 10 (++) μM CR for 12 h followed by addition of Dox to a final concentration of 5 μM, with incubation for 12 h. The cells were subjected to immunofluorescence staining using the antibodies against K48 (αK48) and K63 polyubiquitins (αK63). (b) K48 or K63 polyubiquitin level in Figure 6a was quantified by fluorescence signal. At least seven random regions acquired in confocal images were sampled and normalized against DAPI intensity for quantification. (c) Immunoblots of samples in Figure 6a using the indicated antibodies. […] Statistical significance was calculated by the Student’s t-test (* p < 0.05, ** p < 0.01, *** p < 0.001).
Cells were seeded in the SPL 4 wells cell culture chamber slide 24 h before experiment. […] Subsequently, cells were incubated with primary antibody at 1/200 dilution in blocking buffer overnight and then washed with blocking buffer five times (5 min each) before incubation with fluorescence-conjugated secondary antibody at 1/200 dilution in blocking buffer for 1 h. […] Images acquired in confocal imaging were subjected to fluorescence intensity analysis using ImageJ [55]. Fluorescence signal representing a particular ubiquitin chain level was analyzed and normalized with the intensity of DAPI. […]

[2] = system: HCT116 cells; test: Dox-induced cell death, colorimetric cell viability, HCT116; format: cell-based; settings: for Effect on Dox-induced cell death, HCT116: 10 µM CR or 5 µM NSC697923 12 h, then Dox 1.25–5.0 μM 12 h
Method: (§1) Figure 7 CR enhances Dox sensitivity of cancer cells. (a,b) Enhancement of Dox-induced apoptosis of cancer cells by CR treatment. Dox–induced apoptosis of H1299 (a) and HCT116 (b) was quantified by colorimetric cell viability after treating 10 µM CR for 12 h followed by 12h treatment of Dox (0.0–5.0 µM). […] Caspase activity was quantified by luminogenic caspase activity assay. […] All error bars represent the standard deviation from at least four independent experiments. Statistical significance was calculated by the Student’s t-test (** p < 0.01, *** p < 0.001).
(§2) Cell viability assays were performed as described previously. For the caspase assays, the media were removed, and cells were lysed in 200 µL lysis buffer containing 50 µL Caspase Glo 3/7 solution and incubated for 15 min. Results were observed by measuring the luminescence signal using KOMM-Nr (Berthold Technologies, Bad Wildbad, Germany) and normalized with the total protein concentration measured by the Bradford assay. […]
(§3) Figure S8. NSC697923 enhances Dox sensitivity of cancer cells. (a, b) Effect of NSC697923 to cancer cells’ viability in Dox treatment . Dox–induced cell death of H1299 ( a) and HCT116 ( b) was quantified by colorimetric cell viability assay after treating 5 µM NSC697923 for 12 h followed by 12h treatment of Dox (0.0 […]
(§4) NSC697923. Caspase activity was quantified by luminogenic caspase activity assay. All error bars represent the standard deviation from at least 4 independent experiments. *, P<0.05; **, P<0.01; ***, P<0.001.

[3] = system: H1299 cells; test: Dox-induced cell death, colorimetric cell viability, H1299; format: cell-based
Method: as §1
as §2, with “assay. Data were analyzed using GraphPad Prism version 6.0 for Windows with two tail t-test for statistical data analysis” for “assay.”
as §3, §4

[4] = molecular target: ubiquitin (Homo sapiens, UniProt P0CG47); test: Intrinsic fluorescence quenching assay of ubiquitin; settings: 50 µM ubiquitin, 0–500 µM compound, ex 274 nm / em 305 nm; read-out: Kd, dissociation constant upon binding to ubiquitin
Method: Intrinsic fluorescence quenching assays were performed as described previously. Briefly, intrinsic fluorescence quenching of ubiquitin by indicated compounds was observed by measuring the excitation and emission wavelength at 274 nm and 305 nm respectively of the mixture of 50 µM purified ubiquitin and 0–500 µM compound. Data were fitted to nonlinear regression curves with the equation described previously. F = −∆ε·[PC] + Fo(3) b = (Po + Co + Kd)(4) c = Po·Co(5) [PC] = [b − (b^2 − 4·c)^1/2]/2(6) where Fo and F are the normalized fluorescence intensity of the mixture of ubiquitin without the compound and with different concentrations of the compound, respectively. ∆ε is a difference in the extinction coefficient of the compound between their free and complex forms. [PC] is the concentration of protein/compound complex. Po and Co are the added concentration of ubiquitin and the compound, respectively in each experiment. Kd is the dissociation constant.

[5] = molecular target: USP5 (Homo sapiens); test: Deubiquitination assay, cleavage of GST-Ubiquitin-HA by USP5 (SDS-PAGE band intensity); format: biochemical
Method: (§5) For in vitro ubiquitination assays, 500 µM of ubiquitin was used for each ubiquitination reaction as described previously, in the absence or presence of 50–500 µM of CR. […] The generation of GST-ubiquitin from GST-Ubiquitin-HA as the mobility shifts were analyzed on 12.5% SDS-PAGE visualized by Coomassie blue staining. Band intensities were quantified by ImageJ [55] and used to generate the IC50 curves (log inhibitor vs. normalized response with variable slope) by GraphPad Prism version 6.0 for Windows (GraphPad Software, San Diego, CA, USA, www.graphpad.com).

[6] = molecular target: UCHL1 (Homo sapiens); test: Deubiquitination assay, cleavage of GST-Ubiquitin-HA by UCHL1 (SDS-PAGE band intensity); format: biochemical
Method: as §5

[7] = design: method as in PMID 27613091; settings: previous study ref 35; cited from earlier work
[8] = system: HCT116 cells; test: Luminogenic caspase activity assay (Caspase Glo 3/7), HCT116; format: cell-based; settings: 10 µM CR or 5 µM NSC697923 with Dox
Method: as §1, §2, §3
(§6) NSC697923. Caspase activity was quantified by luminogenic caspase activity assay. […]

[9] = system: H1299 cells; test: Cytotoxicity, cell viability assay; format: cell-based; settings: determined by cytotoxicity assays
Method: as §2, with “assay. Data were analyzed using GraphPad Prism version 6.0 for Windows with two tail t-test for statistical data analysis” for “assay.”
Figure S7. Cytotoxicity of CR to cancer cells. H1299 cells were cultured in 96 -well plates. CR was added to final concentrations of 0.0 – 50.0 µM, and the cells were incubated for 24 h followed by cell viability assay. All error bars represent the standard deviation from at least 4 independent experiments. Statistical comparisons between groups were determined by Student’s t -test. If p -values are less than 0.05, they are statistically significant . NS, not […]
(1 picture or pasted object on this page, not shown here)

[10] = system: H1299 cells; test: Luminogenic caspase activity assay (Caspase Glo 3/7), H1299; format: cell-based; settings: 10 µM CR or 5 µM NSC697923 with Dox
Method: as §1, §2, §3, §6

[11] = 0.6 µM USP5, 5 µM GST-Ubiquitin-HA, 0–45 µM compound, read-out: IC50 USP5 (DUB activity)
[12] = 8 µM UCHL1, 5 µM GST-Ubiquitin-HA, 0–45 µM compound, read-out: IC50 UCHL1 (DUB activity)

USP5 (Homo sapiens), sequence (P45974 2-858, other chains not shown): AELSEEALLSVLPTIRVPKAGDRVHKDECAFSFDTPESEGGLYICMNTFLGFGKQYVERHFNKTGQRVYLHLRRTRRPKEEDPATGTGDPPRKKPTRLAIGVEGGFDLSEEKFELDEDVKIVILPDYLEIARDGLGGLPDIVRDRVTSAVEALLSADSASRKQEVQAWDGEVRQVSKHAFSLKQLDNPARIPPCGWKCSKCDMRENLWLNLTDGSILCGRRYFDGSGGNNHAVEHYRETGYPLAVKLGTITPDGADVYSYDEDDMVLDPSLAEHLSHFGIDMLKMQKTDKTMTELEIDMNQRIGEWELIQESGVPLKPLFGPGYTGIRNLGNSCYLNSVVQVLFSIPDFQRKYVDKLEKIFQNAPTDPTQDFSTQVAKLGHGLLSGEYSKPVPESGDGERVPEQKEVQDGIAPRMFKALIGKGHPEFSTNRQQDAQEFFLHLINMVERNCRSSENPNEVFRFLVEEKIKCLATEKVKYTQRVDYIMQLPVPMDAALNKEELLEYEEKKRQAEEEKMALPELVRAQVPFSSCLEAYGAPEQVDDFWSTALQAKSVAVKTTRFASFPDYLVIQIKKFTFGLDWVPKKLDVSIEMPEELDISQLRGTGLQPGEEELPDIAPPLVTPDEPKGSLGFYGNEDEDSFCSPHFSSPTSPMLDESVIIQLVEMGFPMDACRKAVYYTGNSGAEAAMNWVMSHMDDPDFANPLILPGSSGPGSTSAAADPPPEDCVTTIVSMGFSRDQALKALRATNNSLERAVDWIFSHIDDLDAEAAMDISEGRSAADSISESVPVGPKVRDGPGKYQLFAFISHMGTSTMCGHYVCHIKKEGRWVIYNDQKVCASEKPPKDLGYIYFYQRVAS
UCHL1 (Homo sapiens), sequence (P09936 whole entry, other chains not shown): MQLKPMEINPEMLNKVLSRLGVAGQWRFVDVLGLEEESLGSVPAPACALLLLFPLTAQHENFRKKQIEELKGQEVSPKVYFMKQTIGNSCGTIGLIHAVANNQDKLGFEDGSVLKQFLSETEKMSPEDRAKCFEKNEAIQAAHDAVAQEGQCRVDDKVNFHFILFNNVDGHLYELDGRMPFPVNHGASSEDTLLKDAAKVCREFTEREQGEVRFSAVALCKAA

Structure (SMILES): COc1cccc2c1C(=O)c1c(O)c3c(c(O)c1C2=O)C[C@@](O)(C(=O)CO)C[C@@H]3O[C@H]1C[C@H](N)[C@H](O)[C@H](C)O1 [Dox, doxorubicin]
K48- and K63-polyubiquitination upon Dox alone [1]: enhanced K48- and K63-polyubiquitination | Dox-induced cell death, Dox alone, HCT116 ([2]; Dox 1.25 to 5.0 μM, 12 h): proportional to the Dox concentration | Dox-induced cell death, Dox alone, H1299 ([3]; Dox 1.25 to 5.0 μM, 12 h): proportional to the Dox concentration

Structure (SMILES): Cc1cc(-c2ccc(/N=N/c3ccc4c(S(=O)(=O)O)cc(S(=O)(=O)O)c(N)c4c3O)c(C)c2)ccc1/N=N/c1ccc2c(S(=O)(=O)O)cc(S(=O)(=O)O)c(N)c2c1O [EB, Evans blue]
IC50 [6, 12]: 18.1 ± 2.09 µM | Kd [4]: 13 ± 0.689 µM | IC50 [5, 11]: 9.33 ± 1.58 µM

Structure (SMILES): COc1cc(-c2ccc(/N=N/c3ccc4c(S(=O)(=O)O)cc(S(=O)(=O)O)c(N)c4c3O)c(OC)c2)ccc1/N=N/c1ccc2c(S(=O)(=O)O)cc(S(=O)(=O)O)c(N)c2c1O [CSB6B, Chicago Sky Blue 6B]
IC50 [6]: 11.2 ± 1.37 µM | Kd [4]: 12 ± 0.678 µM | Cell membrane penetration [7]: not able to penetrate the cell membrane | IC50 [5]: 6.52 ± 0.786 µM

Structure (SMILES): Cc1ccc(S(=O)(=O)c2ccc([N+](=O)[O-])o2)cc1 [NSC697923]
Effect on caspase activity of Dox-treated HCT116 cells [8]: Enhanced caspase activity | Effect on Dox-induced cell death, HCT116 [2]: only a synergistic effect at low concentrations of Dox | Effect on Dox-induced cell death, HCT116 ([2]; listed as NSC967923): significantly enhanced Dox-induced cell death | Effect on Dox-induced cell death, H1299 ([3]; 10 µM CR or 5 µM NSC697923 12 h, then Dox 1.25–5.0 μM 12 h): significantly enhanced Dox-induced cell death | None-toxicity concentration [9]: 5 µM | Effect on caspase activity of Dox-treated H1299 cells [10]: Enhanced caspase activity

Structure (SMILES): Cc1cc(-c2ccc(/N=N/c3c(S(=O)(=O)O)cc4cc(S(=O)(=O)O)cc(N)c4c3O)c(C)c2)ccc1/N=N/c1c(S(=O)(=O)O)cc2cc(S(=O)(=O)O)cc(N)c2c1O [TB, Trypan blue]
Kd [4]: 78.1 ± 4.02 µM | IC50 [5, 11]: > 45 µM

Further lines, results first:

Kd [4]: 60.3 ± 2.3 µM | IC50 [5, 11]: 32.5 ± 5 µM
Structure (SMILES): COc1cc(-c2ccc(/N=N/c3c(S(=O)(=O)O)cc4cc(S(=O)(=O)O)cc(N)c4c3O)c(OC)c2)ccc1/N=N/c1c(S(=O)(=O)O)cc2cc(S(=O)(=O)O)cc(N)c2c1O [DB15, Direct blue 15]

IC50 [6, 12]: 33.7 ± 4.05 µM | Kd [4]: 20 ± 0.835 µM | IC50 [5, 11]: 13.7 ± 2.74 µM
Structure (SMILES): Nc1ccc2c(O)c(N=Nc3ccc(N=Nc4ccc(N=Nc5cc(S(=O)(=O)O)c6cccc(S(=O)(=O)O)c6c5)c5ccccc45)c4ccc(S(=O)(=O)O)cc34)c(S(=O)(=O)O)cc2c1 [DB71, Direct blue 71]
